# Laboratory results from patent US20090036448A1, “PYRIMIDINE DERIVATIVES AND METHODS OF TREATMENT RELATED TO THE USE THEREOF” (TAISHO PHARMECUTICAL CO., LTD., priority 2004, published 2009).
# pIC50: −log10 of the molar value. Where a name gives a salt, the structure may show the parent alone.
# Biological target: MCH receptor (Homo sapiens, UniProt Q99705)
# Assay: FLIPR/FDSS6000 functional assay: intracellular Ca2+ changes evoked by MCH
# Assay type: cell-based
# Details: antagonist activity, 50 nM of MCH, [Ca2+]i by FLIPR or FDSS; read-out: IC50
# Description: Subsequently, a functional based assay was used to confirm the lead hits, referred to as FLIPR™ (the Fluorometric Imaging Plate Reader) and FDSS6000™ (Functional Drug Screening System). This assay utilized a non-endogenous, constitutively active version of the MCH receptor.
# The FLIPR and FDSS assays are able to detect intracellular Ca^2+ concentration in cells, which can be utilized to assess receptor activation and determine whether a candidate compound is an, for example, antagonist, inverse agonist or agonist to a Gq-coupled receptor. The concentration of free Ca^2+ in the cytosol of any cell is extremely low, whereas its concentration in the extracellular fluid and endoplasmic reticulum (ER) is very high. Thus, there is a large gradient tending to drive Ca^2+ into the cytosol across both the plasma membrane and ER. The FLIPR™ and FDSS6000™ systems (Molecular Devices Corporation, HAMAMATSU Photonics K.K.) are designed to perform functional cell-based assays, such as the measurement of intracellular calcium for high-throughput screening. The measurement of fluorescent is associated with calcium release upon activation of the Gq-coupled receptors.
# Fluorometric Imaging Plate Reader system was used to allow for rapid, kinetic measurements of intracellular fluorescence in 96 well microplates (or 384 well microplates). Simultaneous measurements of fluorescence in all wells can be made by FLIPR or FDSS6000™ every second with high sensitivity and precision. These systems are ideal for measuring cell-based functional assays such as monitoring the intracellular calcium fluxes that occur within seconds after activation of the Gq coupled receptor.
# Briefly, the cells are seeded into 96 well at 5.5×10^4 cells/well with complete culture media (Dulbecco's Modified Eagle Medium with 10% fetal bovine serum, 2 mM L-glutamine, 1 mM sodium pyruvate and 0.5 mg/mL G418, pH 7.4) for the assay next day. On the day of assay, the media is removed and the cells are incubated with 100 μl of loading buffer (4 μM Fluo-4-AM in complete culture media containing 2.5 mM Probenicid, 0.5 mg/ml and 0.2% bovine serum albumin) in 5% CO2 incubator at 37° C. for 1 hr. The loading buffer is removed, and the cells are washed with wash buffer (Hank's Balanced Salt Solution containing 2.5 mM Probenicid, 20 mM HEPES, 0.5 mg/mL and 0.2% bovine serum albumin, pH 7.4). One hundred fifty μl of wash buffer containing various concentrations of test compound is added to the cells, and the cells are incubated in 5% CO2 incubator at 37° C. for 30 min. Fifty μl of wash buffer containing various concentration of MCH are added to each well, and transient changes in [Ca^2+]i evoked by MCH are monitored using the FLIPR or FDSS in 96 well plates at Ex. 488 nm and Em. 530 nm for 290 second. When antagonist activity of compound is tested, 50 nM of MCH is used.
# Use of FLIPR™ and FDSS6000™ can be accomplished by following manufacturer's instruction (Molecular Device Corporation and HAMAMATSU Photonics K.K.).
row,SMILES,pIC50
1,"Cc1nc(N[C@H]2CC[C@@H](NC(=O)c3cccc(Cl)c3)CC2)cc(N(C)C)n1 [Example 24, 3-Chloro-N-(cis-4-{[6-(dimethylamino)-2-methylpyrimidin-4-yl]amino}cyclohexyl)-benzamide hydrochloride]",7.59

# Same assay, conditions: class by percent of control at 10^−7 M or by IC50; antagonist activity, 50 nM of MCH; read-out: class
row,SMILES,pIC50
1,"Cc1nc(N[C@H]2CC[C@@H](NC(=O)c3cccc(OC(F)(F)F)c3)CC2)cc(N(C)C)n1 [Example 18, N-(cis-4-{[6-(Dimethylamino)-2-methylpyrimidin-4-yl]amino}cyclohexyl)-3-(trifluoromethoxy)benzamide hydrochloride]",> 7.30
2,"Cc1nc(N[C@H]2CC[C@@H](NC(=O)c3ccc(C(F)(F)F)cc3)CC2)cc(N(C)C)n1 [Example 19, N-(cis-4-{[6-(Dimethylamino)-2-methylpyrimidin-4-yl]amino}cyclohexyl)-4-(trifluoromethyl)benzamide hydrochloride]",< 6.70
3,"Cc1nc(N[C@H]2CC[C@@H](NC(=O)c3ccc(OC(F)(F)F)cc3)CC2)cc(N(C)C)n1 [Example 20, N-(cis-4-{[6-(Dimethylamino)-2-methylpyrimidin-4-yl]amino}cyclohexyl)-4-(trifluoromethoxy)benzamide hydrochloride]",< 6.70
4,"Cc1nc(N[C@H]2CC[C@@H](NC(=O)c3cc(Cl)cc(Cl)c3)CC2)cc(N(C)C)n1 [Example 21, 3,5-Dichloro-N-(cis-4-{[6-(dimethylamino)-2-methylpyrimidin-4-yl]amino}cyclohexyl)-benzamide hydrochloride]",> 7.30
5,"Cc1nc(N[C@H]2CC[C@@H](NC(=O)c3ccccc3F)CC2)cc(N(C)C)n1 [Example 22, N-(cis-4-{[6-(Dimethylamino)-2-methylpyrimidin-4-yl]amino}cyclohexyl)-2-fluorobenzamide hydrochloride]",< 6.70
6,"Cc1nc(N[C@H]2CC[C@@H](NC(=O)c3cccc(F)c3)CC2)cc(N(C)C)n1 [Example 23, N-(cis-4-{[6-(Dimethylamino)-2-methylpyrimidin-4-yl]amino}cyclohexyl)-3-fluorobenzamide hydrochloride]",6.70 to 7.30
7,"Cc1nc(N[C@H]2CC[C@@H](NC(=O)c3cccc(Cl)c3)CC2)cc(N(C)C)n1 [Example 24, 3-Chloro-N-(cis-4-{[6-(dimethylamino)-2-methylpyrimidin-4-yl]amino}cyclohexyl)-benzamide hydrochloride]",> 7.30
8,"Cc1nc(N[C@H]2CC[C@@H](NC(=O)c3ccc(Cl)cc3)CC2)cc(N(C)C)n1 [Example 25, 4-Chloro-N-(cis-4-{[6-(dimethylamino)-2-methylpyrimidin-4-yl]amino}cyclohexyl)-benzamide hydrochloride]",6.70 to 7.30
9,"Cc1nc(N[C@H]2CC[C@@H](NC(=O)c3cc(F)cc(C(F)(F)F)c3)CC2)cc(N(C)C)n1 [Example 26, N-(cis-4-{[6-(Dimethylamino)-2-methylpyrimidin-4-yl]amino}cyclohexyl)-3-fluoro-5-(trifluoromethyl)benzamide hydrochloride]",6.70 to 7.30
10,"Cc1nc(N[C@H]2CC[C@@H](NC(=O)c3cc(C(F)(F)F)cc(C(F)(F)F)c3)CC2)cc(N(C)C)n1 [Example 27, N-(cis-4-{([6-(Dimethylamino)-2-methylpyrimidin-4-yl]amino}cyclohexyl)-3,5-bis-(trifluoromethyl)benzamide hydrochloride]",6.70 to 7.30
11,"Cc1nc(NC[C@H]2CC[C@@H](NC(=O)c3ccc(F)c(F)c3)CC2)cc(N(C)C)n1 [Example 28, N-[cis-4-({[6-(Dimethylamino)-2-methylpyrimidin-4-yl]amino}methyl)cyclohexyl]-3,4-difluorobenzamide hydrochloride]",< 6.70
12,"Cc1nc(N[C@H]2CC[C@@H](CNC(=O)c3ccc(F)c(F)c3)CC2)cc(N(C)C)n1 [Example 29, N-[(cis-4-{[6-(Dimethylamino)-2-methylpyrimidin-4-yl]amino}cyclohexyl)methyl]-3,4-difluorobenzamide hydrochloride]",< 6.70
13,"CNc1cc(N[C@H]2CC[C@@H](NC(=O)c3ccc(F)c(F)c3)CC2)nc(C)n1 [Example 30, 3,4-Difluoro-N-(cis-4-{[2-methyl-6-(methylamino)pyrimidin-4-yl]amino}cyclohexyl)-benzamide hydrochloride]",< 6.70
